Reference: US6465451B1, “Hypolipidemic benzothiazepine compounds” (SmithKline Beecham Corporation, priority 1998, dated 2002)

Columns and labels:
[1] = biological target: T1, ileal bile acid active uptake system (Rattus norvegicus, UniProt Q62633); experiment: In vivo inhibition of bile acid reabsorption (75SeHCAT, rat); conditions: male Spraque-Dawley rats, oral gavage twice daily for two days, fecal 75SeHCAT over 24 hours, n=12 total
T1 construct: from tissue; host or cells: whole animal (rat ileum, in vivo)
T1 sequence (Q62633 1-348): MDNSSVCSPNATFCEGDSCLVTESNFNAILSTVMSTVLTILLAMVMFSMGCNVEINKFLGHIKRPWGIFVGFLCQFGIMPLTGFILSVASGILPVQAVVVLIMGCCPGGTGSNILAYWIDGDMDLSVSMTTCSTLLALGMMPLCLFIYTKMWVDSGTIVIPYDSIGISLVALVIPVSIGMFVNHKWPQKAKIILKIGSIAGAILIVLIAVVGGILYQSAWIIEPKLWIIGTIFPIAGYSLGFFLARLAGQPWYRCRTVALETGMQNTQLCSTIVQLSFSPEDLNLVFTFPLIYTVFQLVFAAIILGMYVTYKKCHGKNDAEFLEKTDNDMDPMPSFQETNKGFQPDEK
Description: (I) In vivo Inhibition of Bile Acid Reabsorption
Male Spraque-Dawley rats (CD, Charles River) weighing 220-260 gm were housed in individual cages and fed normal chow. The rats were dosed by oral gavage (1 ml/100 gm body weight) with test compounds as a suspension in 0.5% methylcellulose at 9:00 a.m. and 3:30 p.m. for two days. The control group received 0.5% methylcellose. Two hours after the morning dose on day two, the rats were given a trace amount (1.3 nmoles) of 23,25−^75Se-homocholic acid taurine (^75SeHCAT) in 1.0 ml saline orally. ^75SeHCAT, a synthetic gamma emitting bile acid analog which is absorbed by the ileal bile acid active uptake system similar to taurocholic acid, has been used clinically as a measure of ileal bile acid absorption. Feces were collected over the 24 hours following ^75SeHCAT administration. Fecal content of ^75SeHCAT was determined using a Packard Auto-Gamma 5000 Series gamma-counter. The % inhibition of bile acid reabsorption is calculated as follows: [formula]
The percent of inhibition of bile acid reabsorption in the rat using ^75SeHCAT was used to determine the ED30 (the dose required to give 30% inhibition of bile acid uptake). […]

male Spraque-Dawley rats = experiment: Percent cholesterol lowering in rats fed a cholesterol-cholic acid enriched diet; assay type: in vivo, rat; conditions: gavage b.i.d. for 3 days and once on day four, hypercholesterolemic rats, serum lipids four hours after last dose
Description: (II) Percent Cholesterol Lowering in Rats
Hypercholesterolemia was induced in male Spraque-Dawley rats (CD, Charles River weighing 200-300 g) by administration of a diet enriched in cholesterol and cholic acid. The diet was prepared from Wayne Laboratory Lab Blocks ground into meal and mechanically mixed with powdered cholesterol and cholic acid to a final concentration (by weight) of 1% and 0.5%, respectively. Prior to administration of the diet, blood was collected under halothane anesthesia by cardiac puncture to determine baseline lipid levels. Serum was obtained for analysis of total cholesterol (TC), high density lipoprotein cholesterol (HDL-C), and dextran-precipitable lipoprotein-cholesterol (VLDL+LDL). The rats were divided into groups so that each group had similar baseline serum lipid levels. Five days following the initial sampling for serum lipids the rats were fed ab lib the cholesterol-cholic acid enriched diet and compound administration was begun. The compound was administered by gavage as a suspension in 0.5% methylcellulose (1 ml/100 g body weight) b.i.d. at 9:00 a.m. and 3:00 p.m. for 3 days and at 9:00 a.m. on day four. Control animals received 0.5% methylcellulose only. The rats were bleed four hours after the last dose for the determination of serum lipids. All blood collections were done after a 4-h fast. Serum TC concentrations were determined enzymatically using reagents obtained from Seragen Diagnostics (2). Serum HDL-C was determined after selective precipitation of VLDL and LDL with dextran sulfate and magnesium sulfate, with reagents from Seragen (3). HDL-C was determined in the supernatant. VLDL+LDL cholesterol was determined as the difference between total and HDL-C. The following results were obtained for Example 1 and Example A, as defined above.

ED30 (the dose required to give 30% inhibition of bile acid uptake) [1] [mg/kg]	melting point [°C]	Structure (SMILES)	Percent cholesterol lowering (male Spraque-Dawley rats; dose 0.03 mg/kg) [%]	Percent cholesterol lowering (male Spraque-Dawley rats; dose 0.1 mg/kg) [%]	Percent cholesterol lowering (male Spraque-Dawley rats; dose 0.3 mg/kg) [%]
0.048	179.6 to 180.2	CCCC[C@@]1(CC)CN(c2ccccc2)c2cc(Cl)c(O)cc2S(=O)(=O)C1 [Example 1, (3S)-2,3,4,5-Tetrahydro-3-ethyl-3-butyl-5-phenyl-7-chloro-8-hydroxy-1,5-benzothiazepine-1,1-dioxide]	48	56	81
0.17	–	CCCCC1(CC)CN(c2ccccc2)c2cc(Br)c(O)cc2S(=O)(=O)C1 (stereo not drawn) [Example A, 2,3,4,5-tetrahydro-3-ethyl-3-butyl-5-phenyl-7-bromo-8-hydroxy-1,5-benzothiazepine-1,1-dioxide, reference compound]	14	17	53
